According to patent publication US12133923B2, “Lipid nanoparticle compositions and uses thereof” (ReCode Therapeutics, Inc., priority 2022, dated 2024):
Where two headings read alike, the source gives them in different places.

Tests used:
[1] = tested on: CFTR function in human Bronchial Epithelials (hBE); assay: CFTR function (chloride conductance, MTECC24) in hBE after nebulized CFTR mRNA LNPs; type: cell-based
Method: CFTR mRNA was incorporated into various LNP compositions: DODAP-containing Composition B and various non-DODAP lipid nanoparticles (400 μL for Composition A and Composition H) stored in 1× phosphate buffered saline (PBS). The compositions were nebulized using a VitroCell® system with a mesh nebulizer to deliver aerosolized LNPs to primary human Bronchial Epithelials (hBE). CFTR function was measured. The composition of the nanoparticles used in the study is shown below in Table 13.
Experiments were conducted to evaluate the impact of cholesterol on the stability and efficacy of lipid nanoparticle (LNP) compositions. Composition B lipid nanoparticles containing higher molar percentage of cholesterol were created and subjected to test its CFTR function. Chloride conductance was measured with multi transepithelial current clamp system (MTECC24). […] Further, lipid nanoparticles containing 50% molar percentage of cholesterol were created, measured its CFTR function and resulted that increased molar percentage of cholesterol in lipid nanoparticles enhanced CFTR function (FIG. 41). […]
Cystic Fibrosis treatment drugs (Trifkafta or Orkambi) were treated at the time of nebulization. At 24 h post-treatment, chloride conductance was measured with multi transepithelial current clamp system (MTECC24). […]

[2] = tested on: hBE cells; assay: Transepithelial electrical resistance (TEER) in hBE; type: cell-based, human; conditions: W1282X/W1282X and R553X/W1282X hBE; pre-treatment before LNP nebulization
Method: As used herein, the phrase “transepithelial electrical resistance (TEER)” is a measurement method of electrical resistance across a cellular monolayer to confirm the integrity and permeability of a monolayer. Measurement of TEER is described, for example, in Srinivasan et al. J. Lab. Automation 20:107-126 (2015).
Cystic Fibrosis treatment drugs (Trifkafta or Orkambi) were treated at the time of nebulization. At 24 h post-treatment, chloride conductance was measured with multi transepithelial current clamp system (MTECC24). In both cell lines, nebulization of lipid nanoparticles containing CFTR mRNA rescued CFTR function.
To determine whether aerosolized lipid nanoparticles affect cell toxicity, six ΔF508/ΔF508 homozygous genotypes hBE cells were dosed lipid nanoparticles and measured electrical resistance across a cellular monolayer and released lactic acid dehydrogenase (LDH).
To determine whether mucus production affects transfection efficiency of lipid nanoparticles, W1282X/W1282X hBEs and R553X/W1282X hBEs cells were pre-treated Dithiothreitol (DTT) before lipid nanoparticles were nebulized (experimental scheme shown in FIG. 49). […] Cell toxicities were measured by transepithelial electrical resistance (TEER).

[3] = Single dose inhalation study: LNP component lipid levels in blood, lung, liver, spleen; type: in vivo, cynomolgus monkey; conditions: for lipid signal in lung remaining: 72 hr; for lipid signal in lung remaining, % of peak: 7 days; for time of peak lipid level in lung tissue: after inhaled Composition A-DNAI1-HA
Method: Group 1 animals were terminated at 24-hours post end of exposure.
Levels of the LNP component lipids 4A3-SC7, 14:0 EPC, and DMG-PEG were measured in blood, lung, liver, and spleen samples following administration of Composition-DNAI1-HA. Blood samples were collected at pre-treatment, 0.5 hr, 1 hr, 6 hr, 24 hr, 48 hr, and 7 days postadministration and processed to separate the plasma and blood cell fractions. Spleen and liver samples were collected at 6 hr, 24 hr, 72 hr, and 7 days post-exposure. Lung tissue was sampled in three locations from the right lung of each animal: Caudal lobe, cranial lobe, and middle lobe at each necropsy time point.

With `O[C@H](CS)[C@H](O)CS` (racemic) [DTT, Dithiothreitol] the “chloride flux after nebulization of lipid nanoparticles” value ([1]; W1282X/W1282X and R553X/W1282X hBE, pre-treatment raised from 3 mM to 10 mM) was “correlated with higher chloride flux” and the “cell toxicity by TEER” value [2] was “cell integrity was not affected”.
For `CCCCCCCCCCCCCC(=O)OCC(COP(=O)(OCC)OCC[N+](C)(C)C)OC(=O)CCCCCCCCCCCCC` (stereo not shown) [14:0 EPC, 1,2-dimyristoyl-sn-glycero-3-ethylphosphocholine], the “lipid signal in lung remaining” value ([3]; high dose) was 2.5%, the “lipid signal in lung remaining” value ([3]; low dose) was 13.2% and the “lipid signal in lung remaining, % of peak” value ([3]; high dose) was 0.8%. The “lipid signal in lung remaining, % of peak” value ([3]; low dose) was 0.7%, the “time of peak lipid level in lung tissue” value [3] was 6 h and the “lipid level in liver” value ([3]; all samples except one high dose sample at 6 hr (below assay LOQ)) was “not detected”. For the same molecule, the concentration at 6 hr ([3]; both sexes, cynomolgus monkey, lung, inhaled, 0.34 mg/kg, 6 hr, high dose (group 3), read-out: lipid level in lung) was 13900 to 66700 ng/g, the concentration at 1 hr ([3]; both sexes, cynomolgus monkey, plasma, inhaled, 0.34 mg/kg, high dose (group 3), 1 hr, read-out: lipid level in plasma) was 1.03 ng/mL and the concentration at 6 hr ([3]; both sexes, cynomolgus monkey, plasma, inhaled, 0.34 mg/kg, high dose (group 3), 6 hr, read-out: lipid level in plasma) was 1.97 ng/mL. For the same molecule, the concentration at 6 hr ([3]; both sexes, cynomolgus monkey, spleen, inhaled, 0.34 mg/kg, high dose sample at 6 hr, all others not detected, read-out: lipid level in spleen) was 9.56 ng/g and the “lipid level in plasma” value ([3]; high dose (group 3), 1 hr) was 0.99 ng/mL.
For `CC(C)(C)c1cc(C(C)(C)C)c(NC(=O)c2c[nH]c3ccccc3c2=O)cc1O` [Ivacaftor], the “rescue of CFTR function on addition of CFTR activator” value ([1]; R553X/W1282X and W1282X/W1282X hBE, after delivery of lipid nanoparticles) was “further increased rescue of CFTR function”.
With `CCCCCCCSCC(C)C(=O)OCCOC(=O)CCN(CCCN(C)CCCN(CCC(=O)OCCOC(=O)C(C)CSCCCCCCC)CCC(=O)OCCOC(=O)C(C)CSCCCCCCC)CCC(=O)OCCOC(=O)C(C)CSCCCCCCC` (stereo not shown) [Composition 4A3-SC7] the “lipid signal in lung remaining” value ([3]; high dose) was 0.6%, the “lipid signal in lung remaining” value ([3]; low dose) was 13% and the “lipid level in lung” value ([3]; 7 days post-administration, all samples except one caudal lobe sample in high dose group) was “below the limit of quantitation”. The “time of peak lipid level in lung tissue” value [3] was 6 h and the concentration at 6 hr ([3]; both sexes, cynomolgus monkey, lung, inhaled, 0.34 mg/kg, 6 hr post-exposure, high dose group, read-out: lipid level in lung) was 9550 to 67800 ng/mL.
